Values of other authors, collected in patent US8333981B2, “Antifungal treatment of nails” (Humco Holding Group, Inc., priority 2007, dated 2012).
Where two headings read alike, the source gives them in different places.

Key:
[1] = test system: onychomycosis of fingernails and toenails due to Trichophyton rubrum; details: after several months of use
[2] = test system: C. albicans (monilia), C. neoformans, B. dermatitidis, A. israelii, H. capsulatum, C. immitis, M. furfur (tinea versicolor) and bacteria
[3] = test system: chronic infections of the nails; details: human, in vivo
[4] = test system: fungi known to cause onychomycosis
[5] = in vitro
[6] = not told
[7] = not told; remark: listed apart in the source
[8] = human, in vivo
[9] = in vivo, po

Q: Which anti-fungal activity (toenail fungus) does the source give for `CC12CCC(CC1=O)C2(C)C` (centres unmarked) [Camphor] here?
A: The anti-fungal activity was “little or no detectable anti-fungal activity”.

Q: With `Cc1cc(C2CCCCC2)n(O)c(=O)c1` [Ciclopirox, ciclopirox] as the compound, how does the cure rate [1] read?
A: The cure rate was 14%.

Q: With `Clc1ccccc1C(c1ccccc1)(c1ccccc1)n1ccnc1` [Clotrimazole] as the compound, how does the “dermatophyte isolates being sensitive” value (dermatophyte isolates) read?
A: The value was 30.55%.

Q: With `COC1=CC(=O)C[C@@H](C)[C@]12Oc1c(Cl)c(OC)cc(OC)c1C2=O` [Griseofulvin, griseofulvin] as the compound, how does the “activity against listed organisms” value [2] read?
A: The value was “inactive”.

Q: And the cure rates [3]?
A: Its cure rates is “poor cure rates”.

Q: With `CC1CCC(C(C)C)C(O)C1` (centres unmarked) [Menthol] as the compound, how does the “effect on fungi causing onychomycosis / toenail infection” value [4] read?
A: Its value is “specifically inhibits the growth”.

Q: Which “increase in flux compared to the control” value [5] does the source give for `O=C([O-])CS.[Na+]` [Sodium Thioglycolate] here?
A: Its value is 3.8 fold.

Q: Which “effect on fungi causing onychomycosis / toenail infection” value [4] does the source give for `Cc1ccc(C(C)C)c(O)c1` [Thymol] here?
A: Its value is “effective”.

Q: With `Cc1cccc(N(C)C(=S)Oc2ccc3ccccc3c2)c1` [Tolnaftate] as the compound, how does the “dermatophyte isolates being sensitive” value (dermatophyte isolates) read?
A: The value was 47.22%.

Q: Which “drug permeability compared to control” value [6] does the source give for `NC(N)=O` [Urea] here?
A: Its value is “significant increase”.

Q: Which “dermatophyte isolates being sensitive” value (dermatophyte isolates) does the source give for `Clc1ccc(COC(Cn2ccnc2)c2ccc(Cl)cc2Cl)c(Cl)c1` (centres unmarked) [Water-soluble miconazole, miconazole] here?
A: The value was 75%.

Q: For `CCO` [ethanol], which average permeability coefficient [7] is on record?
A: The average permeability coefficient was 5.8+/−3.1×10(−3) cm hr-1.

Q: With `OC(Cn1cncn1)(Cn1cncn1)c1ccc(F)cc1F` [fluconazole] as the compound, how does the “patients who experienced adverse events” value [8] read?
A: The value was “Sixteen”.

Q: With `CCC(C)n1ncn(-c2ccc(N3CCN(c4ccc(OCC5COC(Cn6cncn6)(c6ccc(Cl)cc6Cl)O5)cc4)CC3)cc2)c1=O` (centres unmarked) [itraconazole] as the compound, how does the “total observed incidence of adverse events possibly or directly drug-related” value [9] read?
A: The value was 18.2%.

Q: For `CCCCCCCCO` [n-octanol], which permeability coefficient is on record?
A: The permeability coefficient was 0.075 ×10⁻⁶ cm/s.

Q: Which permeability coefficient (not told) does the source give for `O` [water] here?
A: Its permeability coefficient is 4.58 ×10⁻⁶ cm/s.

Q: And the average permeability coefficient [7]?
A: Its average permeability coefficient is 16.5+/−5.9×10(−3) cm hr-1.
